Literature values in publication PMC2831464 (Clinical cancer research : an official journal of the …, 2010).

Conditions: cited from earlier work

In the case of `CCc1c2c(nc3ccc(O)cc13)-c1cc3c(c(=O)n1C2)COC(=O)[C@]3(O)CC` [SN-38], the “lactone AUC ratio” value is listed as 30~76%.
In the case of `CC[C@@]1(O)C(=O)OCc2c1cc1n(c2=O)Cc2c-1nc1ccccc1c2/C=N/OC(C)(C)C` [gimatecan], the half-life is listed as 77 h and the “share in the lactone form in plasma” value is listed as 90–98%.
For `CC[C@@]1(O)C(=O)OCc2c1cc1n(c2=O)Cc2cc3c(CN(C)C)c(O)ccc3nc2-1` [topotecan], the “lactone AUC ratio” value is given as 30~76%.
For `CC[C@@]1(O)C(=O)OCc2c1cc1n(c2=O)Cc2c-1nc1ccccc1c2CC[Si](C)(C)C` [karenitecin], the half-life is listed as 15 h and the “share in the lactone form in plasma” value is listed as 90–95%.
